Laboratory results from US4239747A, “Dicarboxylic acid bis(3,5-dicarbamoyl-2,4,6-triiodoanilides) useful as x-ray contrast agents” (Schering Aktiengesellschaft, priority 1976, dated 1980).
Values after ≈ are worked out from the molar mass of the structure shown. Where two headings read alike, the source gives them in different places.

How the values were obtained:
[1] = Solubility in water; assay type: physicochemical; settings: for solubility: water
[2] = tested on: rats; assay type: in vivo; settings: 10 rats; 50 mg. iodine/ml.; 0.4 ml./kg.
Experimental: In a further evaluation according to Valzelli, "A Simple Method to Inject Drugs Intracerebrally;" Med. Exp. Vol. 11: 23-26, (1964), each of 10 rats (90-110 g.) were injected intracerebrally with contrast medium solutions of compounds A-E at an iodine concentration of 50 mg./ml. in a dosage of 0.4 ml./kg. Toxic effects of compounds A-D included grave anomalies in posture (attitude), torsional spasms, excitation, and death.

[3] = tested on: proteins of human plasma; experiment: Protein binding, human plasma (ultrafiltration method); assay type: in vitro ADME; settings: n = 6; 1.2 mg. Iodine/ml.; ultrafiltration
Experimental: (§1) Binding of contrast media to proteins of human plasma was determined at a final plasma concentration of 1.2 mg. iodine/ml. using the ultrafiltration method. The novel, nonionic dimer E was bound only to a very minor extent of 1.4±2.4%.

[4] = as above; assay type: in vitro ADME; settings: human, plasma
Experimental: as §1

[5] = tested on: mice; experiment: Compatibility after intravenous injection in mice; assay type: in vivo
[6] = tested on: mice; experiment: Compatibility after intravenous injection in mice; assay type: in vivo; settings: for Mortality/survival after intravenous injection: 6-10 mice, 10 g. iodine/kg, 300 mg. iodine/ml., 0.8 ml./min.
Experimental: 1. Compatibility After Intravenous Injection
Each of 6-10 mice weighing 20-22 g. was injected intravenously with the contrast medium being tested in the form of a solution at a concentration of 300 mg. of iodine/ml., a dosage of 10 g. iodine/kg. and an injection rate of 0.8 ml./min. Ionic agents were given as meglumine salts.

[7] = Osmotic pressure and osmolality of solutions of identical iodine concentration (300 mg. Iodine/ml.); assay type: physicochemical; settings: at 37° C.
Text: The novel compounds are distinguished from other compounds by a lower diffusibility on account of their size.
Concentration, Osmotic Pressure, and Osmolality of Solutions of Identical

[8] = tested on: erythrocytes; experiment: Effect of the contrast media on erythrocyte morphology; settings: 43 mg. Iodine/ml. Blood; score 0 (intact) to 5 (highest damage)
Experimental: Contrast medium solutions containing 300 mg. iodine/ml. were mixed in a ratio of 1:6 with heparinized blood. The final concentration of the contrast media was 43 mg. iodine/ml. The evaluation criterion was the change of the natural shape of the erythrocytes via echinocytes to spherocytes.

[9] = background statement; cited from earlier work
[10] = background statement; cited from earlier work; remark: listed apart in the source
[11] = n = 6, 1.2 mg. Iodine/ml., ultrafiltration, read-out: Protein Binding Human Plasma (converted)

| SMILES | fraction unbound [4, 11] | Compatibility After i.v. Injection in Mice, LD50 [5] | Osmolality [7] | Osmotic Pressure [7] | Effect on Erythrocyte Morphology, Damage Index [8] | solubility [1] | other results |
| --- | --- | --- | --- | --- | --- | --- | --- |
| CN(CC(O)CO)C(=O)c1c(I)c(NC(=O)C(=O)Nc2c(I)c(C(=O)N(C)CC(O)CO)c(I)c(C(=O)N(C)CC(O)CO)c2I)c(I)c(C(=O)N(C)CC(O)CO)c1I (stereo not drawn) [Example 1, oxalic acid bis[3,5-bis(2,3-dihydroxypropyl-N-methylcarbamoyl)-2,4,6-triiodoanilide]] | 0.986 | 20 g. Iodine/kg. | 175 mOsm/kg . H2 O | 4.5 at. | 0.33 |  | solubility ([1]; room temperature): > 600 mg/mL; Toxic effects after intracerebral injection [2]: caused none of these effects in any of the animals; Protein Binding Human Plasma [3]: 1.4±2.4%; Mortality/survival after intravenous injection [6]: All mice survived |
| CN(CC(O)CO)C(=O)c1c(I)c(C(=O)N(C)CC(O)CO)c(I)c(N(C)C(=O)COCC(=O)N(C)c2c(I)c(C(=O)N(C)CC(O)CO)c(I)c(C(=O)N(C)CC(O)CO)c2I)c1I (stereo not drawn) [Example 8, Oxaglutaric Acid bis[3,5-bis(2,3-Dihydroxypropyl-N-methylcarbamoyl)-2,4,6-triiodo-N-methylanilide]] |  | 10 g. Iodine/kg. |  |  | 0.09 | > 600 mg/mL |  |
| CN(CC(O)CO)C(=O)c1c(I)c(C(=O)N(C)CC(O)CO)c(I)c(N(C)C(=O)CC(=O)N(C)c2c(I)c(C(=O)N(C)CC(O)CO)c(I)c(C(=O)N(C)CC(O)CO)c2I)c1I (stereo not drawn) [Example 9, Malonic Acid bis[3,5-bis(2,3-Dihydroxypropyl-N-methylcarbamoyl)-2,4,6-triiodo-N-methylanilide]] |  |  | 197 mOsm/kg . H2 O | 5.0 at. |  |  | Solubility in water [1]: more than 60 g./150 ml. of solution |
| CN(CC(O)CO)C(=O)c1c(I)c(NC(=O)CCCCC(=O)Nc2c(I)c(C(=O)N(C)CC(O)CO)c(I)c(C(=O)N(C)CC(O)CO)c2I)c(I)c(C(=O)N(C)CC(O)CO)c1I (stereo not drawn) [Example 10, Adipic Acid bis[3,5-bis(2,3-Dihydroxypropyl-N-methylcarbamoyl)-2,4,6-triiodoanilide]] |  |  |  |  | 0.11 | 130 mg/mL (≈ 82.5 mM) | Solubility behaviour in words [1]: yields supersaturated solutions; Compatibility After i.v. Injection in Mice, LD50 ([6]; i.v., mice, determined with supersaturated solution): 30 g. Iodine/kg. |
| O=C(CCCCC(=O)Nc1c(I)c(C(=O)NC(CO)CO)c(I)c(C(=O)NC(CO)CO)c1I)Nc1c(I)c(C(=O)NC(CO)CO)c(I)c(C(=O)NC(CO)CO)c1I [Example 11, Adipic Acid bis[3,5-bis(1,3-Dihydroxyisopropylcarbamoyl)-2,4,6-triiodoanilide]] |  |  |  |  |  | < 1 mg/mL |  |
| CN(CC(O)CO)C(=O)c1c(I)c(NC(=O)COCCOCC(=O)Nc2c(I)c(C(=O)N(C)CC(O)CO)c(I)c(C(=O)N(C)CC(O)CO)c2I)c(I)c(C(=O)N(C)CC(O)CO)c1I (stereo not drawn) [Example 12, 3,6-Dioxasuberic Acid bis[3,5-bis(2,3-Dihydroxypropyl-N-methylcarbamoyl)-2,4,6-triiodoanilide]] |  | 22 g. Iodine/kg. | 216 mOsm/kg . H2 O | 5.5 at. | 0.13 |  |  |
| CC(=O)Nc1c(I)c(NC(C)=O)c(I)c(C(=O)O)c1I [Meglumine Amidotrizoate] | 0.968 | 6.5 g. Iodine/kg. | 1520 mOsm/kg . H2 O | 38.6 at. | 2.57 |  |  |
| CNC(=O)c1c(I)c(NC(=O)CCCCC(=O)Nc2c(I)c(C(=O)O)c(I)c(C(=O)NC)c2I)c(I)c(C(=O)O)c1I [Meglumine Iocarmate] | 0.908 | 6.5 g. Iodine/kg. | 1260 mOsm/kg . H2 O | 32.0 at. | 1.37 |  | Resulting concentration in the urine [9]: relatively high resulting concentration in the urine; Osmotic pressure, relative [10]: somewhat lower osmotic pressure |
| CNC(=O)c1c(I)c(NC(C)=O)c(I)c(C(=O)O)c1I [Meglumine Iothalamate] |  | 6.5 g. Iodine/kg. | 1650 mOsm/kg . H2 O | 41.9 at. |  |  | fraction unbound [4]: 0.948 |
| CC(=O)Nc1c(I)c(C(=O)N[C@H]2C(O)O[C@H](CO)[C@@H](O)[C@@H]2O)c(I)c(N(C)C(C)=O)c1I (stereo partly drawn) [Metrizamide, 2-(3-acetamido-5-N-methylacetamido-2,4,6-triiodobenzamido)-2-deoxy-D-glucose] |  | 14 g. Iodine/kg. | 485 mOsm/kg . H2 O | 12.3 at. |  |  | fraction unbound [4]: 0.938; Mortality/survival after intravenous injection [6]: one animal died |
